{
  "source": "patent US10351525B2",
  "about": "“Beta lactamase inhibitors” (Oxford University Innovation Limited, priority 2014, dated 2019)",
  "key": {"NDM-1": {"target": "T1, NDM-1 (Klebsiella pneumoniae, UniProt C7C422)", "T1 construct": "made in house; host or cells: Escherichia coli", "assay": "biochemical", "experimental": "Recombinant forms of NDM-1, NDM-1 M67C, VIM-1, VIM-2, SPM-1, IMP-1 and BcII MBLs were produced in Escherichia coli as described in J. Med. Chem. 56, 6945-6953 (2013) and Makena et al Chem MechCHem 8, 1923-9 (2013). Purified VIM-2 protein was dialysed into fresh crystallization buffer (50 mM HEPES pH 7.5, 150 mM NaCl and […], concentrated to 7.5 mg/mL and used for crystallographic analyses.\nKinetic and inhibition analyses and UV-VIS studies^16 against bacterial MBLs were performed as described by Van Berkel et al in J. Med. Chem. 56, 6945-6953 (2013) and Makena et al Chem MechCHem 8, 1923-9 (2013).\nThe experiments were performed by using a NovaStar microplate reader (using path length correction) and were performed at r.t. (24-25° C.). All enzymes and substrates were dissolved in the assay buffer: 50 mM HEPES-NaOH buffer (pH 7.2) supplemented with 1 μg/mL BSA (to minimize the denaturation of the enzyme), 1 μM ZnSO4 and 0.01% Triton 100. Screening was carried out against a panel of MBLs including NDM-1, VIM-1, VIM-2, SPM-1 (Sao Paulo MBL-1) and IMP-1 and the non-clinically relevant model MBL Bacillus cereus (BcII).\nThe kinetic values determined were the means from at least three independent measurements. […] The IC50 values were determined from the plot of activity (steady state rate) versus inhibitor concentration using the same software. […]"}, "[1]": {"test_system": "MBL producing Escherichia coli and Klebsiella pneumoniae strains", "assay": "Potentiation of meropenem", "assay_type": "cell-based", "settings": "for Inhibitor concentration that conferred meropenem sensitivity (lowest tested): IMP producers; for Synergy with meropenem: MBL producing strains", "experimental": "(§1) Further studies were carried out to determine if ML302F/ML302 potentiates β-lactam antibiotic activity in clinically derived strains containing IMP-1, IMP-4, VIM-4 or NDM-1, which are the most commonly observed MBLs in clinical isolates. All strains producing MBLs were confirmed as resistant to meropenem at the Clinical and Laboratory Standards Institute (U.S.A.) defined breakpoint of 8 μg/mL for Enterobacteriace (see Table 2 below). The minimum inhibitory concentration (MIC) of meropenem against wildtype and MBL producing Escherichia coli and Klebsiella pneumoniae strains was determined with and without increasing concentrations of ML302 or ML302F. Clinical and Laboratory Standards Institute. 2012. Methods for dilution antimicrobial susceptibility tests for bacteria that grow aerobically; 9th ed. Approved standard M07-A9. CLSI, Wayne, Pa.; and Clinical and Laboratory Standards Institute. 2012. Performance standards for antimicrobial susceptibility testing; 22nd informational supplement M100-S22. CLSI, Wayne, Pa."}, "hHAT": {"target": "T2, hHAT (Homo sapiens, UniProt Q09472)", "T2 construct": "purchased Active Motif 56100", "T2 sequence (Q09472 1284-1673 limits assumed)": "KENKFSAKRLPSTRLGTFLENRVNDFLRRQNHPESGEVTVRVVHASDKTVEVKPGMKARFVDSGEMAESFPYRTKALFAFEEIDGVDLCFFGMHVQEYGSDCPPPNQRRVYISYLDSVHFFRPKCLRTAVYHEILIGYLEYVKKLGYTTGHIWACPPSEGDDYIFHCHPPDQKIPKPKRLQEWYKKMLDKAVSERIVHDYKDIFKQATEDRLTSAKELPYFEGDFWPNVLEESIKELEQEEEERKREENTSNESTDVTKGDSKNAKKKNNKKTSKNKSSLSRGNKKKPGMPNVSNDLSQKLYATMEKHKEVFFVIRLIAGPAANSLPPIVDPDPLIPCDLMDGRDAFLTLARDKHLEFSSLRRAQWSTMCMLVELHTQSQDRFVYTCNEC", "assay": "Inhibition studies hHAT (HAT Assay Kit)", "assay_type": "biochemical", "experimental": "To investigate the selectivity of ML302/ML302F for bacterial MBLs, activity was tested against TEM-1 (a Class A SBL), PBP-5 (penicillin-binding protein 5 or dacA) and PBP-6 (penicillin-binding protein 6, or dacC) from E. coli, hHAT (human histone acetyltransferase) and hHDAC (human histone deacetylase). TEM-1, PBP-5 and -6 and hHAT are known to be inhibited by rhodanines. Selectively against hACE-2 (Angiotensin converting enzyme 2) and hHAGH (Hydroxyacylglutathione hydrolase, human Glyoxylase II) was also tested.\nThe inhibition analyses for human histone acetyltransferases (HAT), HDAC hHDAC (human histone deacetylase), hACE-2 (Angiotensin converting enzyme 2) and hHAGH (Hydroxyacylglutathione hydrolase, human Glyoxylase II) were performed using the commercially available HAT Assay Kit (Active Motif, catalogue No. 56100 (2009)), hHDAC (Active Motif, catalogue No. 56200 (2013)), hACE-2 (ACE-2 (R&D Systems) and hHAGH ((R&D Systems)."}, "E. coli 25722 (wt)": {"test_system": "E. coli 25722 (wt)", "assay": "Meropenem MIC with and without inhibitor", "assay_type": "cell-based", "settings": "Escherichia coli, read-out: Meropenem MIC in the absence of inhibitor", "experimental": "as §1"}, "[2]": {"test_system": "K. pneumoniae NCTC 5055 (wt)", "assay": "Meropenem MIC with and without inhibitor", "assay_type": "cell-based", "settings": "Klebsiella pneumoniae, NCTC5055, read-out: Meropenem MIC in the absence of inhibitor", "experimental": "as §1"}, "K. pneumoniae 177": {"test_system": "K. pneumoniae 177", "assay": "MIC of MEM with and without ML302F (1:8), VIM-1 producer", "assay_type": "cell-based", "settings": "Klebsiella pneumoniae; K. pneumoniae 177 (VIM-1); MEM alone or with ML302F (1:8)", "experimental": "(§2) In a further study, antimicrobial activities of MEM and ML302F alone and in combination were assessed in-vitro against 31 VIM-producing clinical isolates."}, "K. pneumoniae GR54": {"test_system": "K. pneumoniae GR54", "assay": "MIC of MEM with and without ML302F (1:8), VIM-1 producer", "assay_type": "cell-based", "settings": "Klebsiella pneumoniae", "experimental": "as §2"}, "P. stuartii 70": {"test_system": "P. stuartii 70", "assay": "MIC of MEM with and without ML302F (1:8), VIM-1 producer", "assay_type": "cell-based", "settings": "Providencia stuartii; P. stuartii 70 (VIM-1); MEM alone or with ML302F (1:8)", "experimental": "as §2"}, "P.. stuartii 67": {"test_system": "P.. stuartii 67", "assay": "MIC of MEM with and without ML302F (1:8), VIM-1 producer", "assay_type": "cell-based", "settings": "Providencia stuartii; P. stuartii 67 (VIM-1); MEM alone or with ML302F (1:8)", "experimental": "as §2"}, "VIM-2": {"target": "T3, VIM-2 (Escherichia coli, UniProt Q5U7L7)", "T3 construct": "made in house; host or cells: Escherichia coli", "settings": "Spicer et al, NIH Probe Reports 2010, read-out: IC50 against VIM-2, reported value; cited from earlier work"}},
  "data": [
    {"compound": "O=C(O)C(S)=Cc1c(Cl)ccc(Cl)c1Cl", "note": "(racemic) [ML302F, 2-Mercapto-3-(2,3,6-trichlorophenyl)acrylic acid]; for Inhibition verdict: key: N.I.—not inhibited", "values": [
      {"measurement": "IC50", "setting": "NDM-1", "result": "1.05 ± 0.3", "unit": "µM"},
      {"measurement": "Meropenem MICs in the presence of ML302F relative to the same ML302 concentration, fold higher", "setting": "[1]", "result": "up to 8 fold"},
      {"measurement": "Inhibitor concentration that conferred meropenem sensitivity (lowest tested)", "setting": "[1]", "result": 10, "unit": "µg/mL"},
      {"measurement": "Synergy with meropenem", "setting": "[1]", "result": "displayed synergy with meropenem"},
      {"measurement": "Inhibition verdict", "setting": "hHAT", "result": "N.I."},
      {"measurement": "RA (residual activity)", "setting": "hHAT", "result": "85 ± 9", "unit": "%"}
    ]},
    {"compound": "C[C@@H](O)[C@H]1C(=O)N2C(C(=O)O)=C(S[C@@H]3CN[C@H](C(=O)N(C)C)C3)[C@H](C)[C@H]12", "note": "[Meropenem, meropenem]", "values": [
      {"measurement": "MIC", "setting": "E. coli 25722 (wt)", "result": "≤ 0.25", "unit": "mg/L"},
      {"measurement": "MIC", "setting": "[2]", "result": "≤ 0.25", "unit": "mg/L"},
      {"measurement": "MIC", "setting": "K. pneumoniae 177", "result": 1, "unit": "mg/L"},
      {"measurement": "MIC", "setting": "K. pneumoniae GR54", "result": 128, "unit": "mg/L"},
      {"measurement": "MIC", "setting": "P. stuartii 70", "result": 8, "unit": "mg/L"},
      {"measurement": "MIC", "setting": "P.. stuartii 67", "result": 8, "unit": "mg/L"}
    ]},
    {"compound": "CN1CCN(NC(=O)CN2C(=O)C(=Cc3c(Cl)ccc(Cl)c3Cl)SC2=S)CC1", "note": "(mixture of isomers) [ML302, N-(4-Methylpiperazin-1-yl)-2-(4-oxo-2-thioxo-5-(2,3,6-trichlorobenzylidene)thiazolidin-3-yl)acetamide]", "values": [
      {"measurement": "IC50", "setting": "NDM-1", "result": "9.44 ± 1.44", "unit": "µM"},
      {"measurement": "Inhibitor concentration that conferred meropenem sensitivity (lowest tested)", "setting": "[1]", "result": 10, "unit": "µg/mL"},
      {"measurement": "Synergy with meropenem", "setting": "[1]", "result": "Synergy between ML302 and meropenem was observed for all MBL producing strains"},
      {"measurement": "Inhibitor concentration giving meropenem sensitivity", "setting": "[1]; read-out: Inhibitor concentration at which clinically relevant meropenem sensitivity (MIC<8 μg/mL) achieved", "result": 50, "unit": "µg/mL"},
      {"measurement": "Inhibition verdict", "setting": "hHAT", "result": "N.I."},
      {"measurement": "RA (residual activity)", "setting": "hHAT", "result": "93 ± 15", "unit": "%"},
      {"measurement": "IC50", "setting": "VIM-2", "result": 0.548, "unit": "µM"}
    ]}
  ]
}
